Experiments:
Acinetobacter baumannii [1] = test: Transmission electron microscope observation; type: cell-based; conditions: 37° C., 2 hours, complex 1,000 μg/mL, mixture 500 + 500 μg/mL; for morphological changes (TEM): lysozyme alone 500 μg/mL, chitosan alone 500 μg/mL
Description: (§1) As a control, physiological saline (0.9% NaCl solution) was used.
(§2) Then, centrifugation was performed, and the resultant pellets were washed with physiological saline (0.9% NaCl), fixed in a 1.0% buffered osmium tetroxide buffer solution in a 0.1 M phosphate buffered saline for 1 hour, embedded in 2.0% agar, dehydrated with ethanol, and then embedded in Epon 812 (TAAB Laboratories Equipment Ltd.). Ultrathin sections of 70 nm were collected on a copper grid, double-stained with uranyl acetate and lead citrate, and observed with a transmission electron microscope (H-7100) at 75 kV.

[2] = tested on: Pseudomonas aeruginosa (NBRC 13275); test: Transmission electron microscope observation; type: cell-based; conditions: 37° C., 2 hours, complex 1,000 μg/mL, mixture 500 + 500 μg/mL; for morphological changes (TEM): lysozyme alone 500 μg/mL, chitosan alone 500 μg/mL
Description: as §1, §2

[3] = tested on: Acinetobacter baumannii (JCM 6841); test: Bacteria-killing test (Experimental Example 1); type: cell-based; conditions: 2,000 μg/mL in physiological saline, 37° C., at 60 minutes and 120 minutes, versus control
Description: The bacteria-killing property of the lysozyme-chitosan complex (LYZOX (registered trademark)) against Acinetobacter and the like was measured in comparison with a mixture of lysozyme and chitosan and the like.
(§3) As a control, physiological saline (0.9% NaCl solution) was used. The Acinetobacter bacterial suspension or Pseudomonas aeruginosa bacterial suspension was prepared as follows. Pseudomonas aeruginosa (NBRC 13275 or PAO1) or Acinetobacter baumannii (JCM 6841) was grown overnight at 37° C. in trypsin soy broth (TSB), centrifuged during the logarithmic growth phase, and collected, and the bacteria were resuspended in physiological saline (0.9% NaCl), with such a final suspension concentration that the absorbance was 1.0 (10^8 to 10^9 CFU/mL) at 600 nm.
(§4) At 0 minutes, 30 minutes, 60 minutes, and 120 minutes after the start of incubation, 0.1 mL of each solution was added to a solid medium (Mueller-Hinton medium) for overnight growth, and then the bacteria count was measured. The test of the bacterial suspensions against each solution was performed three times and measured.

[4] = tested on: Pseudomonas aeruginosa (NBRC 13275); test: Bacteria-killing test at various concentrations (Experimental Example 2); type: cell-based; conditions: 200 μg/mL, 2,000 μg/mL and 10,000 μg/mL in physiological saline
Description: as §3, §4

[5] = tested on: Acinetobacter baumannii (JCM 6841); test: Growth suppression effect test (Experimental Example 3); type: cell-based; conditions: 2,000 μg/mL in TSB, 37° C., 6 hours, versus control
Description: (§5) As a control, TSB medium without additives was used. The Acinetobacter bacterial suspension or Pseudomonas aeruginosa bacterial suspension was prepared in the same way as in Experimental Example 1 described above. […] After 6 hours, 0.1 mL of each solution was added to a solid medium (Mueller-Hinton medium) and allowed to grow overnight, and then the bacteria count was measured. The bacterial suspensions were tested on each solution 18 times for Pseudomonas aeruginosa (NBRC 13275) and 8 times each for Pseudomonas aeruginosa (PAO1) and Acinetobacter by duplicate (mean of triplicate measurements and SEM (standard error of sample mean)) in independent experiments.

[6] = tested on: Pseudomonas aeruginosa (NBRC 13275); test: Growth suppression effect test at various concentrations (Experimental Example 4); type: cell-based; conditions: 2,000 μg/mL, 5,000 μg/mL and 10,000 μg/mL in TSB, 6 hours
Description: as §5

Acinetobacter (JCM 6841) [7] = test: Cell membrane integrity test (absorbance at 260 nm); type: cell-based, Acinetobacter baumannii
Text: (§6) The measurement of absorbance at 260 nm (A260nm) was used to estimate the amount of nucleic acid released from the cytoplasm, thereby evaluating the integrity of the cell membrane. When a bacterial cell membrane is compromised by an antibacterial agent, intracellular components are released into the extracellular space. The measurement of absorbance at 260 nm is used to estimate the amount of DNA and RNA released from the cytoplasm.
(§7) Specifically, evaluation on whether substances with absorption at 260 nm were released from the bacteria was performed by measuring the absorption at 260 nm with ND-1000 manufactured by Thermo Fisher Scientific. […] As a control, a 0.5% NaCl solution was used. The Pseudomonas aeruginosa bacterial suspension and Acinetobacter bacterial suspension prepared in the same manner as in Experimental Example 1 were resuspended in a 0.5% NaCl solution, and prepared with such a final suspension concentration that the absorbance at 420 nm was 0.7. […] At 20 minutes, 40 minutes, 60 minutes, 80 minutes, 100 minutes, and 120 minutes after the start of incubation, each solution was subjected to a 0.22 μm syringe filter to remove bacteria, and the absorbance at 260 nm (A260nm) was measured. The results for absorbance, expressed as the average of triplicate measurements and SEM (standard error of sample mean), are shown in FIGS. 4A and 4B.

[8] = tested on: Pseudomonas aeruginosa (NBRC 13275); test: as above; type: cell-based
Text: as §6, §7

Acinetobacter (JCM 6841) [9] = test: ONPG assay (intracellular membrane permeability test); type: cell-based, Acinetobacter baumannii; conditions: for absorbance 420 nm (ONPG), time course: up to 100 minutes
Description: (§8) Intracellular membrane permeability was determined by ONPG assay (o-nitrophenyl-β-D-galactopyranoside (ONPG) assay). When the cell membrane is damaged, intracellular enzymes, including β-galactosidase, leak out of the cell. ONPG is normally colorless, but is hydrolyzed by β-galactosidase to galactose and o-nitrophenol, resulting in an increase in absorbance at 420 nm. The intracellular membrane permeability of bacteria can be determined by measuring the activity of cytosolic β-galactosidase released from the bacteria using ONPG as a substrate.
(§9) Specifically, evaluation on whether substances with absorption at 420 nm were released was performed by measuring the absorption at 420 nm with the spectrophotometer ASV11D. […] As a control, a 0.5% NaCl solution was used. The Pseudomonas aeruginosa bacterial suspension and Acinetobacter bacterial suspension prepared in the same manner as in Experimental Example 1 were resuspended in a 0.5% NaCl solution, and prepared with such a final suspension concentration that the absorbance at 420 nm was 1.2. […] The increase in absorbance at 420 nm (A420nm) was evaluated by performing triplicate measurements.

[10] = tested on: Pseudomonas aeruginosa (NBRC 13275); test: as above; type: cell-based; conditions: final 200, 2,000 and 5,000 μg/mL
Description: as §8, §9

Acinetobacter (JCM 6841) [11] = test: Confocal laser scanning microscope observation (LIVE/DEAD BacLight); type: cell-based, Acinetobacter baumannii; conditions: final 1,000 μg/mL, 37° C., 2 hours
Description: (§10) As a control, physiological saline (0.9% NaCl solution) was used. To 500 μL of these solutions, 500 μL of Pseudomonas aeruginosa bacterial suspension and Acinetobacter bacterial suspension prepared in the same manner as in Experimental Example 1 above was added, and incubated at 37° C. for 2 hours. Then, 3 μL of LIVE/DEAD BacLight reagent (a mixture of SYTO 9 and propidium iodide (PI), which stain nucleic acids) was added and further incubated for 15 minutes at room temperature. SYTO 9 with green fluorescence labels all bacteria, while PI with red fluorescence permeates only bacteria with damaged plasma membranes, and the presence of both dyes attenuates the fluorescence of SYTO 9.

[12] = tested on: Pseudomonas aeruginosa (NBRC 13275); test: as above; type: cell-based; conditions: final 1,000 μg/mL, 37° C., 2 hours
Description: as §10

Acinetobacter baumannii [13] = test: Drug resistance acquisition test (MIC after repeated subculture); type: cell-based; conditions: after 10 subcultures at ½ MIC in LB medium
Description: (§11) The MIC was defined as the minimum concentration of the reagent without visual turbidity observed after 18 hours and 24 hours of evaluation. […] The bacteria that were not subcultured was evaluated as a control (CTL in FIGS. 10A and 10B). MIC measurements were repeated 10 times to evaluate the development of drug resistance in these bacteria.

[14] = tested on: Pseudomonas aeruginosa (NBRC 13275 and PAO 1); test: as above; type: cell-based; conditions: after 10 subcultures at ½ MIC in LB medium
Description: as §11

[15] = final 2,000, 5,000 and 10,000 μg/mL, 0.5% NaCl, 37° C.
[16] = various concentrations, 20 to 120 minutes

Description for rabbit erythrocytes: Each resulting mixed solution was incubated at 37° C. for 1 hour, and centrifuged at 1500 rpm for 10 minutes, and the supernatant was collected. […] Each absorbance (OD) was measured at 545 nm to calculate the hemolytic rate by using the following formula. The absorbance value at 545 nm was expressed as the average and SEM (standard error of the sample mean) of triplicate measurements.

poly-β1→4-glucosamine [chitosan alone, reference compound]
morphological changes (TEM) (Acinetobacter baumannii [1]): formed numerous vesicles on their surfaces | morphological changes (TEM) [2]: formed numerous vesicles on their surfaces

lysozyme-chitosan complex: Commercial LYZOX powder: chicken-derived lysozyme (about 14,000 Da) and about 5,000 Da water-soluble chitosan, mass ratio 1:1, bound by Maillard reaction
bacteria count (bacteria-killing) [3]: significantly reduced the bacteria count than the control | bacteria-killing activity (bacteria count) [4]: concentration-dependent bacteria-killing activity | bacteria count (growth suppression) [5]: significantly reduced the bacteria count than the control | growth suppression effect (bacteria count) [6]: concentration-dependent growth suppression effect | absorbance 260 nm, dependence on concentration (Acinetobacter (JCM 6841) [7]; [15]): increased in a concentration-dependent manner | absorbance 260 nm compared to the control (Acinetobacter (JCM 6841) [7]; final 2,000, 5,000 and 10,000 μg/mL, 20 to 120 minutes): higher absorbance in Acinetobacter compared to the control | absorbance 260 nm, time course (Acinetobacter (JCM 6841) [7]; [16]): increased rapidly in the first 20 minutes, and then the rate of increase decreased until 120 minutes | absorbance 260 nm, dependence on concentration [8, 15]: increased in a concentration-dependent manner | absorbance 260 nm, time course [8, 16]: increased rapidly in the first 20 minutes, and then the rate of increase decreased until 120 minutes | absorbance 420 nm (ONPG), time course (Acinetobacter (JCM 6841) [9]; 200 μg/mL): increased in the first 10 minutes and remained constant thereafter | absorbance 420 nm (ONPG), time course (Acinetobacter (JCM 6841) [9]; 2,000 μg/mL and 5,000 μg/mL): increased rapidly at first and then slowly until 100 minutes | effect on the inner membrane (Acinetobacter (JCM 6841) [9]; ONPG assay): disrupt the inner membrane of Acinetobacter | absorbance 420 nm (ONPG), dependence on concentration (Acinetobacter (JCM 6841) [9]; final 200, 2,000 and 5,000 μg/mL): increased in a concentration-dependent manner | absorbance 420 nm (ONPG), dependence on concentration [10]: increased in a concentration-dependent manner | aggregation of bacterial cells (CLSM) (Acinetobacter (JCM 6841) [11]): less aggregation of bacterial cells than Pseudomonas aeruginosa | bacterial cells with damaged membranes (red fluorescence, CLSM) (Acinetobacter (JCM 6841) [11]): more bacterial cells with damaged membranes than in the corresponding control | aggregation of bacterial cells (CLSM) [12]: aggregated to form clusters | bacterial cells with damaged membranes (red fluorescence, CLSM) [12]: more bacterial cells with damaged membranes than in the corresponding control | morphological changes (TEM) (Acinetobacter baumannii [1]): spherical cells with outer membrane vesicles | cell walls and intracellular contents (TEM) (Acinetobacter baumannii [1]): bacterial cell walls were disrupted and the intracellular contents were released from the cells | morphological changes (TEM) [2]: spherical cells with outer membrane vesicles | cell walls and intracellular contents (TEM) [2]: bacterial cell walls were disrupted and the intracellular contents were released from the cells | acquisition of drug resistance (change of MIC) (Acinetobacter baumannii [13]): did not acquire resistance | acquisition of drug resistance (change of MIC) [14]: did not acquire resistance | hemolysis of rabbit erythrocytes (rabbit erythrocytes): almost did not hemolyze

lysozyme alone: lysozyme (manufactured by Nippon Biocon Ltd.), enzyme that hydrolyzes mucopolysaccharides [reference compound]
morphological changes (TEM) (Acinetobacter baumannii [1]): formed spheroplasts | morphological changes (TEM) [2]: formed spheroplasts

Reference: patent US20220233656A1, “ANTIBACTERIAL COMPOSITION” (NATIONAL UNIVERSITY CORPORATION TOKYO MEDICAL AND DENTAL …, priority 2019, published 2022)
